Measurements published in US20240058315A1, “Pyridine and Pyrazine derivative for the Treatment of CF, COPD, and Bronchiectasis” (NOVARTIS AG, priority 2019, published 2024).
Entries after “also recorded” stand apart in the source; their conditions may differ.

Assays:
CYP2B6 = assay: Induction of CYP2B6; assay type: in vitro ADME
BCRP = BCRP (Homo sapiens (Human), UniProt Q9UNQ0); assay: in vitro inhibition of BCRP; assay type: in vitro ADME
[1] = test system: Pseudomonas aeruginosa small colony variant; assay type: in vivo; conditions: Baseline
Description: (§1) Patients were randomized and stratified by smoking status (former vs current smokers). The double-blind placebo-controlled treatment period was 28 days (Day 1 to Day 28) and included visits on Days 1, 14 and 28. Eligible patients were randomized in a 2:1 ratio to receive 300 mg b.i.d. of Compound A or matching placebo for 28 consecutive days. Of note, the first 4 patients enrolled randomized in this study received 450 mg b.i.d. of Compound A or placebo, prior to an amendment reducing the dose and thereafter the dose was reduced to 300 mg b.i.d. of Compound A. The single-blind placebo-controlled follow-up period was 28 days. The follow-up period included a visit on Day 29 for key primary and secondary objective efficacy assessments, weekly follow-up contact via telephone, and an End-of-Study (EOS) visit on Day 56.
Spontaneous sputum was collected from patients and used to quantify colony forming units (CFUs) as a potential efficacy marker. […] In the event of bacterial growth for one or more of the above five pathogens, then the test result was reported, including the quantitative growth. […]
A decrease in airway bacterial colonization as detected in the sputum is considered improvement. […] Within each treatment group, the percentage was calculated as number of patients who were colonized with bacteria divided with total number of patients who produced a sputum sample at that time point.

patients with CF = assay: Clinical study in cystic fibrosis patients: lung function (FEV1); assay type: in vivo, human; conditions: two weeks of treatment, listed as Compound A
COPD patients = assay: COPD PoC study (study 2): lung function (LCI, FEV1, spirometry); assay type: in vivo, human
Description: as §1

OAT1/3 = assay: in vitro inhibition of OAT1/3; assay type: in vitro ADME
[2] = test system: Any Pathogen (Haemophilus parainfluenza, Haemophilus influenza, Pseudomonas aeruginosa, Moraxella, Streptococcus pneumonia) in sputum; assay: Phase II study in COPD patients: sputum microbiology, any pathogen; assay type: in vivo; conditions: for patients colonized, n (%) / patients with a positive culture, n (%): Any Pathogen; for patients colonized, n (%): all patients in sputum analysis; for patients with a positive culture, n (%): only subjects with a pathogen at baseline; for percent of patients who cleared colonization: patients with culture positive sputum at Baseline
Description: A double-blinded, randomized, placebo-controlled, non-confirmatory, and multi-center, fixed-dose study of Compound A in COPD patients was conducted to assess efficacy, safety, tolerability, pharmacokinetics (PK), and pharmacodynamics (PD). Patients were randomized and stratified by smoking status (former vs current smokers). The double-blind placebo-controlled treatment period was 28 days (Day 1 to Day 28) and included visits on Days 1, 14 and 28. Eligible patients were randomized in a 2:1 ratio to receive 300 mg b.i.d. of Compound A or matching placebo for 28 consecutive days. Of note, the first 4 patients enrolled randomized in this study received 450 mg b.i.d. of Compound A or placebo, prior to an amendment reducing the dose and thereafter the dose was reduced to 300 mg b.i.d. of Compound A. The single-blind placebo-controlled follow-up period was 28 days. The follow-up period included a visit on Day 29 for key primary and secondary objective efficacy assessments, weekly follow-up contact via telephone, and an End-of-Study (EOS) visit on Day 56. Number of patients (planned and analyzed): Ninety two (92) patients were randomized into the study. The majority of the patients (N=78, 84.8%) completed the study as planned. A total of 14 patients discontinued the study (N=2 from placebo group and N=12 from Compound A group). The reasons for discontinuations include adverse events, protocol deviations (failure to meet inclusion/exclusion at Baseline), patient decision, abnormal laboratory values (positive drug screen) and administrative problems (patient unable to return to site for visits).
(§2) Spontaneous sputum was collected from patients and used to quantify colony forming units (CFUs) as a potential efficacy marker. The collected sputum samples were cultured for the following specific bacteria: Haemophilus parainfluenza, Haemophilus influenza, Pseudomonas aeruginosa, Moraxella, and Streptococcus pneumonia. In the event of bacterial growth for one or more of the above five pathogens, then the test result was reported, including the quantitative growth. In order to be included in the sputum analysis, a patient must have provided a sufficient sputum sample at baseline and at least one other visit (Day 14, Day 29 or EOS).
(§3) A decrease in airway bacterial colonization as detected in the sputum is considered improvement. In Table 4, the frequency (n, %) of patients was reported by treatment with Compound A and type of bacteria. Within each treatment group, the percentage was calculated as number of patients who were colonized with bacteria divided with total number of patients who produced a sputum sample at that time point.
For the treatment effect a summary table, the frequency (n, %) of patients with a positive culture was reported by each treatment. Only patients with a positive culture at baseline are included in this analysis. Percentage was calculated as number of patients who are colonized (i.e., have at least one culture resulted) divided with total number of patients who produced a sputum sample at each visit, by treatment.

[3] = Pharmacokinetics of Compound A (half-life, trough/AUC relation); assay type: in vivo
Haemophilus influenzae = assay: Phase II study in COPD patients: sputum microbiology, Haemophilus influenzae; assay type: in vivo
Description: as §1, §2, §3

CFTR = assay: COPD PoC study (study 2): sweat chloride; assay type: in vivo, human; conditions: Day 29, 300 mg bid 28 days, 90% CI −11.6, 1.25, p-value=0.091
Description: as §1

CYP3A4/5 = assay: Time dependent inhibition and induction of CYP3A4/5; assay type: in vitro ADME
UGT1A1 = UGT1A1 (Homo sapiens (Human), UniProt P22309); assay: in vitro inhibition of UGT1A1; assay type: in vitro ADME
[4] = test system: Pseudomonas aeruginosa Biotype 2 - dry; assay: Phase II study in COPD patients: sputum microbiology, Pseudomonas aeruginosa Biotype 2 - dry; assay type: in vivo
Description: as §1, §2, §3

Chain of UGT1A1 (P22309 26-533): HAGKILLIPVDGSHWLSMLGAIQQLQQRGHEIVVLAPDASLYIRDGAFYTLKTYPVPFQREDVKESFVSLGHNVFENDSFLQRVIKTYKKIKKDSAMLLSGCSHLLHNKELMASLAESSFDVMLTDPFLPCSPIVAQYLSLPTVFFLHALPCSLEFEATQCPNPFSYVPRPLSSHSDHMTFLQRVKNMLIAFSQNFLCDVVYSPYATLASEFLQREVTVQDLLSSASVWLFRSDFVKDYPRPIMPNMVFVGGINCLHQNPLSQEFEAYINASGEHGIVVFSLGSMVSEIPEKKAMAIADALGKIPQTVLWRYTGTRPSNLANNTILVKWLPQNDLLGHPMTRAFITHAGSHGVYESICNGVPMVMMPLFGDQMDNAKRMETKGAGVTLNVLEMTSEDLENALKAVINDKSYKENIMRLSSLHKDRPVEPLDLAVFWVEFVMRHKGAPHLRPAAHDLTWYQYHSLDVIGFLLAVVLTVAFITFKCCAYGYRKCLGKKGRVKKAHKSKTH
Chain of BCRP (Q9UNQ0 whole entry): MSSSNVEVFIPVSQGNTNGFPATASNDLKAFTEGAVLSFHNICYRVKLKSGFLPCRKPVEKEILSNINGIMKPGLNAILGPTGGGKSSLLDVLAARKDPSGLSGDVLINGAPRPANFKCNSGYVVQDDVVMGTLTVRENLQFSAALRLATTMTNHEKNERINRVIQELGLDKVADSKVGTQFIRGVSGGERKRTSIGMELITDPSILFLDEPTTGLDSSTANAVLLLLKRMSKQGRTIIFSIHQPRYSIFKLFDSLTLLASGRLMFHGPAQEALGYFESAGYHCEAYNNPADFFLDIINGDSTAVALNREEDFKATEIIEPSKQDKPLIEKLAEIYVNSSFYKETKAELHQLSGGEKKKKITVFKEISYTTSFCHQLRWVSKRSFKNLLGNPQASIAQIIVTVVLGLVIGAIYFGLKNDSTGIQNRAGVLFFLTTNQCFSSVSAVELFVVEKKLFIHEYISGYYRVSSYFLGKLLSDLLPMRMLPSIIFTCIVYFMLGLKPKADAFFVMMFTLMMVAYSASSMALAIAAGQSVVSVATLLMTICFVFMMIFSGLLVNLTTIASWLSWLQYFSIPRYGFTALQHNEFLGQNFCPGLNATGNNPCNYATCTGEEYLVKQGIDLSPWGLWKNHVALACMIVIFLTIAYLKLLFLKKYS

COc1nc(C(=O)NC[C@](C)(O)C(F)(F)F)c(N)cc1C(F)(F)F (single isomer, unassigned) [Example 5]
effect on co-medications mainly metabolized by CYP2B6 (CYP2B6): induce | inhibition of BCRP (BCRP): Weak in vitro inhibition | patients colonized, n (%) [1]: 1 (2.2) n (%) | lung function (FEV1) (patients with CF): significant improvement; also recorded: statistically important improvement | LCI, pre-bronchodilator FEV1 and post-bronchodilator FEV1, mean change from baseline (COPD patients; Day 14, COPD patients): evidence of improvement | pre- and post-bronchodilator FVC, IC, % FEF25-75 compared to placebo (COPD patients; Day 29, 300 mg bid 28 days, COPD patients): supportive evidence of improvement | estimated difference (Compound A - placebo) in mean change from baseline post-bronchodilator FEV1 (COPD patients; Day 29, 300 mg bid 28 days, COPD, 90% CI −0.02, 0.14, p-value=0.100): 0.06 L | posterior difference (Compound A - placebo) in mean change from baseline pre-bronchodilator FEV1 (COPD patients; Day 29, 300 mg bid 28 days, COPD, 90% CrI −0.03, 0.13, 84% probability better than placebo): 0.05 L | posterior difference (Compound A - placebo) in mean change from baseline LCI (COPD patients; Day 29, 300 mg bid 28 days, COPD, 90% CrI −0.24, 0.79, 19% probability better than placebo): 0.28 | efficacy results for FEV1, sweat chloride, fibrinogen, spirometry and lung volume measurements (COPD patients; EOS, 28 days after the last dose, COPD patients): returned to baseline | lung function (FEV1) (COPD patients; patients with COPD, four weeks of treatment, listed as Compound A): significant improvement; also recorded: statistically important improvement | inhibition of OAT1/3 (OAT1/3): Weak in vitro inhibition | patients colonized, n (%) ([2]; Baseline): 26 (57.8) n (%) | bacterial colonization, percent of patients ([2]; Baseline, sputum analysis set): 58% | patients colonized, n (%) ([2]; D14): 23 (53.5) n (%) | patients with a positive culture, n (%) ([2]; D14): 19 (76.0) n (%) | patients colonized, n (%) ([2]; D29): 23 (54.8) n (%) | patients with a positive culture, n (%) ([2]; D29): 18 (75.0) n (%) | percent of patients who cleared colonization ([2]; Day 29, placebo 15%): 25% | percent of patients colonized ([2]; Day 29, sputum analysis set, placebo 70%): 55% | patients colonized, n (%) ([2]; EOS): 17 (40.5) n (%) | patients with a positive culture, n (%) ([2]; EOS): 14 (58.3) n (%) | percent of patients who cleared colonization ([2]; EOS, placebo 23%): 42% | percent of patients colonized ([2]; EOS, sputum analysis set, placebo 74%): 41% | half-life ([3]; in vivo): 10 to 16 h | trough concentration (Cmin,ss) corresponding to AUC0-24 h,ss of 91,700 ng*h/ml ([3]; regression of Cmin,ss against AUC0-24 h,ss): 3000 ng/mL | patients colonized, n (%) (Haemophilus influenzae; Baseline): 25 (55.6) n (%) | patients colonized, n (%) (Haemophilus influenzae; D14): 20 (46.5) n (%) | patients colonized, n (%) (Haemophilus influenzae; D29): 22 (52.4) n (%) | patients colonized, n (%) (Haemophilus influenzae; EOS): 16 (38.1) n (%) | estimated difference (Compound A - placebo) in mean change from baseline sweat chloride (CFTR): -5.19 mmol/L | effect on CYP3A4/5 (CYP3A4/5): time dependent inhibitor and inducer | inhibition of UGT1A1 (UGT1A1): Weak in vitro inhibition | patients colonized, n (%) ([4]; Baseline): 2 (4.4) n (%) | patients colonized, n (%) ([4]; D14): 4 (9.3) n (%) | patients colonized, n (%) ([4]; D29): 2 (4.8) n (%) | patients colonized, n (%) ([4]; EOS): 1 (2.4) n (%)
